Assay results published in patent US10597388B2, “Pyridazinone herbicides” (FMC CORPORATION, priority 2014, dated 2020).

How the values were obtained:
Type in all cases: in vivo
[1] = system: waterhemp_RES2 (ALS & HPPD resistant common waterhemp, Amaranthus rudis); experiment: Test E greenhouse herbicide test, postemergence
How it was run: (§1)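 Visual injury scored 0 (no effect) to 100 (complete control) versus untreated plants, 14 to 21 d after treatment in the greenhouse. Plants were treated postemergence at 1- to 4-leaf stage, 2–18 cm height, in peat-moss/vermiculite medium.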

[2] = system: waterhemp_RES1 (ALS & Triazine resistant common waterhemp, Amaranthus rudis); experiment: Test E greenhouse herbicide test, postemergence
How it was run: as §1

[3] = system: velvetleaf (Abutilon theophrasti); experiment: Test E greenhouse herbicide test, pre- and postemergence; settings: Preemergence
How it was run: (§2)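 Scores (0–100, visual, vs controls) reflect greenhouse growth of 14 to 21 d after treatment. Application was pre-emergence to silt loam or post-emergence at the 1- to 4-leaf stage.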

[4] = system: beggarticks (hairy beggarticks, Bidens pilosa); experiment: as above
How it was run: as §2

[5] = system: dayflower (Virginia (VA) dayflower, Commelina virginica); experiment: as above
How it was run: as §2

[6] = system: lambsquarters (Chenopodium album); experiment: as above; settings: Preemergence
How it was run: as §2

[7] = system: waterhemp (common waterhemp, Amaranthus rudis); experiment: as above
How it was run: as §2

kochia (Kochia scoparia) = experiment: as above
How it was run: as §2

[8] = system: foxtail, green (green foxtail, Setaria viridis); experiment: as above; settings: Preemergence
How it was run: as §2

corn (Zea mays) = experiment: as above
How it was run: as §2

[9] = system: wild poinsettia (Euphorbia heterophylla); experiment: as above
How it was run: as §2

[10] = system: Italian ryegrass (Lolium multiflorum); experiment: as above
How it was run: as §2

[11] = system: sandbur (southem sandbur, Cenchrus echinatus); experiment: as above
How it was run: as §2

[12] = system: nutsedge, yellow (yellow nutsedge, Cyperus esculentus); experiment: as above; settings: Preemergence
How it was run: as §2

[13] = 31 g ai/ha, visual, scale 0 no effect to 100 complete control
[14] = 62 g ai/ha, scale 0 to 100 (0 no effect, 100 complete control)
[15] = 125 g ai/ha, scale 0 to 100 (0 no effect, 100 complete control)
[16] = 250 g ai/ha, scale 0 to 100 (0 no effect, 100 complete control)
[17] = 31 g ai/ha, scale 0 to 100, 0 no effect, 100 complete control
[18] = 250 g ai/ha, visual, scale 0 no effect to 100 complete control
[19] = 62 g ai/ha, Postemergence, scale 0 to 100 (0 no effect, 100 complete control)
[20] = 62 g ai/ha, Preemergence, scale 0 to 100 (0 no effect, 100 complete control)
[21] = 125 g ai/ha, Postemergence, scale 0 to 100 (0 no effect, 100 complete control)
[22] = 250 g ai/ha, Postemergence, scale 0 to 100 (0 no effect, 100 complete control)
[23] = Postemergence, 31 g ai/ha, visual, scale 0 no effect to 100 complete control
[24] = Preemergence, 31 g ai/ha, scale 0 to 100, 0 no effect, 100 complete control
[25] = Preemergence, 125 g ai/ha, visual, scale 0 no effect to 100 complete control
[26] = Preemergence, 250 g ai/ha, visual, scale 0 no effect to 100 complete control
[27] = 125 g ai/ha, visual, scale 0 no effect to 100 complete control
[28] = 125 g ai/ha, Preemergence, scale 0 to 100 (0 no effect, 100 complete control)

Cc1nn(C)c(=O)c(-c2ccc(F)c3ccccc23)c1O [Compound 41]
95: Plant response rating, Waterhemp_RES1 [2, 16] | Plant response rating, Velvetleaf [3, 15] | Plant response rating, Beggarticks [4, 19] | Plant response rating, Beggarticks [4, 21] | Plant response rating, Kochia (kochia (Kochia scoparia); [19]) | Plant response rating, Kochia (kochia (Kochia scoparia); [21]) | Plant response rating, Kochia (kochia (Kochia scoparia); [22])
100: Plant response rating, Velvetleaf [3, 18] | Plant response rating, Beggarticks [4, 22] | Plant response rating, Beggarticks [4, 23] | Plant response rating, Beggarticks [4, 25] | Plant response rating, Beggarticks [4, 26] | Plant response rating, Lambsquarters [6, 14] | Plant response rating, Lambsquarters [6, 27] | Plant response rating, Lambsquarters [6, 18] | Plant response rating, Waterhemp [7, 28] | Plant response rating, Waterhemp [7, 26] | Plant response rating, Kochia (kochia (Kochia scoparia); [25]) | Plant response rating, Kochia (kochia (Kochia scoparia); [26]) | Plant response rating, Ryegrass, Italian [10, 20] | Plant response rating, Ryegrass, Italian [10, 28] | Plant response rating, Ryegrass, Italian [10, 26]
50: Plant response rating, Dayflower, VA [5, 23] | Plant response rating, Foxtail, Green [8, 27] | Plant response rating, Sandbur [11, 19] | Plant response rating, Sandbur [11, 24]
40: Plant response rating, Dayflower, VA [5, 19] | Plant response rating, Dayflower, VA [5, 20] | Plant response rating, Poinsettia, Wild [9, 20] | Plant response rating, Poinsettia, Wild [9, 28]
70: Plant response rating, Dayflower, VA [5, 25] | Plant response rating, Sandbur [11, 20] | Plant response rating, Sandbur [11, 21]
90: Plant response rating, Waterhemp_RES1 [2, 15] | Plant response rating, Dayflower, VA [5, 22] | Plant response rating, Waterhemp [7, 21] | Plant response rating, Kochia (kochia (Kochia scoparia); [20]) | Plant response rating, Kochia (kochia (Kochia scoparia); [23]) | Plant response rating, Kochia (kochia (Kochia scoparia); [24]) | Plant response rating, Ryegrass, Italian [10, 22]
20: Plant response rating, Waterhemp_RES2 [1, 13] | Plant response rating, Velvetleaf [3, 17] | Plant response rating, Foxtail, Green [8, 17]
5: Plant response rating, Corn (corn (Zea mays); [22])
85: Plant response rating, Waterhemp_RES2 [1, 16] | Plant response rating, Velvetleaf [3, 14] | Plant response rating, Dayflower, VA [5, 21] | Plant response rating, Waterhemp [7, 19] | Plant response rating, Waterhemp [7, 22] | Plant response rating, Ryegrass, Italian [10, 19] | Plant response rating, Ryegrass, Italian [10, 21] | Plant response rating, Nutsedge, Yellow [12, 18]
35: Plant response rating, Lambsquarters [6, 17]
80: Plant response rating, Waterhemp_RES2 [1, 14] | Plant response rating, Waterhemp_RES2 [1, 15] | Plant response rating, Dayflower, VA [5, 26] | Plant response rating, Ryegrass, Italian [10, 23] | Plant response rating, Sandbur [11, 26]
0: Plant response rating, Corn (corn (Zea mays); [19]) | Plant response rating, Corn (corn (Zea mays); [20]) | Plant response rating, Corn (corn (Zea mays); [21]) | Plant response rating, Corn (corn (Zea mays); [23]) | Plant response rating, Corn (corn (Zea mays); [24]) | Plant response rating, Corn (corn (Zea mays); [25])
15: Plant response rating, Dayflower, VA [5, 24] | Plant response rating, Poinsettia, Wild [9, 24]
75: Plant response rating, Waterhemp_RES1 [2, 13] | Plant response rating, Waterhemp_RES1 [2, 14] | Plant response rating, Waterhemp [7, 23] | Plant response rating, Waterhemp [7, 24] | Plant response rating, Foxtail, Green [8, 18] | Plant response rating, Sandbur [11, 28] | Plant response rating, Sandbur [11, 22] | Plant response rating, Nutsedge, Yellow [12, 15]
65: Plant response rating, Beggarticks [4, 24] | Plant response rating, Poinsettia, Wild [9, 26] | Plant response rating, Nutsedge, Yellow [12, 14]
60: Plant response rating, Sandbur [11, 23]
25: Plant response rating, Foxtail, Green [8, 14] | Plant response rating, Corn (corn (Zea mays); [26]) | Plant response rating, Nutsedge, Yellow [12, 17]
98: Plant response rating, Beggarticks [4, 20] | Plant response rating, Waterhemp [7, 20] | Plant response rating, Ryegrass, Italian [10, 24]

CCc1sc2ccc(C)cc2c1-c1c(O)c(C)nn(C)c1=O [Compound 47]
10: Plant response rating, Dayflower, VA [5, 22] | Plant response rating, Poinsettia, Wild [9, 23] | Plant response rating, Ryegrass, Italian [10, 22] | Plant response rating, Sandbur [11, 28]
15: Plant response rating, Waterhemp_RES2 [1, 13] | Plant response rating, Poinsettia, Wild [9, 19]
80: Plant response rating, Waterhemp_RES1 [2, 15] | Plant response rating, Dayflower, VA [5, 26] | Plant response rating, Waterhemp [7, 19] | Plant response rating, Kochia (kochia (Kochia scoparia); [21])
50: Plant response rating, Waterhemp_RES2 [1, 14] | Plant response rating, Waterhemp [7, 24] | Plant response rating, Ryegrass, Italian [10, 26]
95: Plant response rating, Waterhemp_RES1 [2, 16]
70: Plant response rating, Waterhemp_RES2 [1, 16] | Plant response rating, Waterhemp_RES1 [2, 14] | Plant response rating, Kochia (kochia (Kochia scoparia); [19]) | Plant response rating, Foxtail, Green [8, 18] | Plant response rating, Sandbur [11, 26]
25: Plant response rating, Poinsettia, Wild [9, 21] | Plant response rating, Sandbur [11, 21]
75: Plant response rating, Velvetleaf [3, 15] | Plant response rating, Waterhemp [7, 23] | Plant response rating, Kochia (kochia (Kochia scoparia); [25])
5: Plant response rating, Dayflower, VA [5, 19] | Plant response rating, Corn (corn (Zea mays); [19]) | Plant response rating, Corn (corn (Zea mays); [21]) | Plant response rating, Ryegrass, Italian [10, 24]
35: Plant response rating, Sandbur [11, 22] | Plant response rating, Nutsedge, Yellow [12, 18]
60: Plant response rating, Waterhemp_RES2 [1, 15] | Plant response rating, Waterhemp_RES1 [2, 13] | Plant response rating, Kochia (kochia (Kochia scoparia); [23])
0: Plant response rating, Velvetleaf [3, 17] | Plant response rating, Dayflower, VA [5, 20] | Plant response rating, Dayflower, VA [5, 21] | Plant response rating, Dayflower, VA [5, 23] | Plant response rating, Dayflower, VA [5, 24] | Plant response rating, Dayflower, VA [5, 25] | Plant response rating, Kochia (kochia (Kochia scoparia); [24]) | Plant response rating, Foxtail, Green [8, 17] | Plant response rating, Corn (corn (Zea mays); [20]) | Plant response rating, Corn (corn (Zea mays); [23]) | Plant response rating, Corn (corn (Zea mays); [24]) | Plant response rating, Corn (corn (Zea mays); [25]) | Plant response rating, Corn (corn (Zea mays); [26]) | Plant response rating, Poinsettia, Wild [9, 20] | Plant response rating, Poinsettia, Wild [9, 28] | Plant response rating, Poinsettia, Wild [9, 24] | Plant response rating, Ryegrass, Italian [10, 19] | Plant response rating, Ryegrass, Italian [10, 21] | Plant response rating, Ryegrass, Italian [10, 23] | Plant response rating, Sandbur [11, 20] | Plant response rating, Sandbur [11, 24] | Plant response rating, Nutsedge, Yellow [12, 17]
98: Plant response rating, Beggarticks [4, 21] | Plant response rating, Beggarticks [4, 22]
30: Plant response rating, Foxtail, Green [8, 27] | Plant response rating, Poinsettia, Wild [9, 22] | Plant response rating, Ryegrass, Italian [10, 20] | Plant response rating, Ryegrass, Italian [10, 28] | Plant response rating, Nutsedge, Yellow [12, 15]
85: Plant response rating, Beggarticks [4, 23] | Plant response rating, Waterhemp [7, 21] | Plant response rating, Kochia (kochia (Kochia scoparia); [20]) | Plant response rating, Kochia (kochia (Kochia scoparia); [22])
20: Plant response rating, Foxtail, Green [8, 14] | Plant response rating, Corn (corn (Zea mays); [22]) | Plant response rating, Poinsettia, Wild [9, 26] | Plant response rating, Sandbur [11, 19] | Plant response rating, Sandbur [11, 23]
100: Plant response rating, Velvetleaf [3, 18] | Plant response rating, Beggarticks [4, 19] | Plant response rating, Beggarticks [4, 20] | Plant response rating, Beggarticks [4, 24] | Plant response rating, Beggarticks [4, 25] | Plant response rating, Beggarticks [4, 26] | Plant response rating, Lambsquarters [6, 14] | Plant response rating, Lambsquarters [6, 17] | Plant response rating, Lambsquarters [6, 27] | Plant response rating, Lambsquarters [6, 18] | Plant response rating, Waterhemp [7, 22] | Plant response rating, Waterhemp [7, 26] | Plant response rating, Kochia (kochia (Kochia scoparia); [26])
90: Plant response rating, Waterhemp [7, 20] | Plant response rating, Waterhemp [7, 28]
